According to PMC8549791, “Discovery of SARS-CoV-2 M^pro peptide inhibitors from modelling substrate and ligand binding” (Chemical Science, 2021):
“Also recorded” adds a separate entry of the source. Like-named read-outs stand apart in the source and are kept apart here. Ends that are not written are not given here.

What was measured:
[1] = target: T1, SARS-CoV-2 M^pro (Severe acute respiratory syndrome coronavirus 2, UniProt P0DTD1); test: biochemical; set-up: The main protease (M^pro) of SARS-CoV-2; made in house; conditions: for Hill slope: pH 7.5
[2] = target: T1, SARS-CoV-2 M^pro; test: biochemical; format: biochemical; set-up: The main protease (M^pro) of SARS-CoV-2; made in house
[3] = target: T1, SARS-CoV-2 M^pro; format: biochemical; set-up: The main protease (M^pro) of SARS-CoV-2; made in house
[4] = target: T1, SARS-CoV-2 M^pro; format: biochemical; set-up: The main protease (M^pro) of SARS-CoV-2; made in house; conditions: for depletion of s01 in presence of inhibitor: pH 6.9
[5] = system: M^pro dimer; format: binding, SARS-CoV-2; conditions: pH 6.9
[6] = target: T1, SARS-CoV-2 M^pro; conditions: pH 7.5
[7] = target: T1, SARS-CoV-2 M^pro
[8] = system: SARS-CoV M^pro; conditions: cited from earlier work
[9] = target: T1, SARS-CoV-2 M^pro; conditions: cited from earlier work

Compound	IC50 [1] [µM]	Hill slope [1]	IC50 ratio R [2]	mode of inhibition [2]	IC50 ([2]; IC50 at [S] = 2 µM) [µM]	IC50 ([2]; IC50 at [S] = 10 µM) [µM]	IC50 ([2]; IC50 at [S] = 20 µM) [µM]	IC50 ([2]; IC50 at [S] = 40 µM) [µM]	cleavage products by LCMS [3]	depletion of s01 in presence of inhibitor [4] [%]	M^pro dimer/s01-cleavage product complexes in presence of inhibitor [4]	complexes with M^pro dimer after 1 min [5]	turnover / cleavage (in words) [6]	turnover (fast/medium/slow) [7]	substrate ion depletion after 6 min ([7]; pH 6.9) [%]	substrate ion depletion after 12 min ([7]; pH 6.9)	relative catalytic efficiency with SARS-CoV M^pro (in words) [8]	turnover by SARS-CoV M^pro (in words) [8]	substrate ion depletion after 1 min ([7]; pH 6.9) [%]	mode of inhibition (in words) [9]
LTINWQKYFNT-NH2 [p15]	5.31 ± 1.08	1.17 ± 0.16	4.56	competitive inhibition	8.26 ± 0.06	12 ± 0.34	18.83 ± 0.18	37.7 ± 2.02	not observed	70										
WFTLKQYWQTN-NH2 [p16]	3.76 ± 0.51	1.19 ± 0.16	4.85	competitive inhibition	4.79 ± 0.08	6.66 ± 0.41	10.4 ± 0.53	23.2 ± 0.42	not observed	78										
KYLTWQNSQIN-NH2 [p13]				competitive inhibition	2.97 ± 0.21	4.28 ± 0.8	6.77 ± 0.46	18.1 ± 0.96	not observed	91	the abundance of these complexes was lower than the abundance of M^pro/p13 complexes									
KYTFWQYSQFY-NH2 [p12]	5.36 ± 2.17	1.25 ± 0.06	3.61	competitive inhibition	4.53 ± 0.9	4.99 ± 0.22	7.49 ± 0.04	16.3 ± 0.52	not observed	95										
SGVTFQ↓SAVKR [s02]												complexes of the M^pro dimer and the cleavage products were observed	hydrolysed less efficiently than s11	medium	> 70	> 90%	highest relative efficiencies	fast turnover		
REPMLQ↓SADAQ [s07]												only M^pro complexes with intact substrates were observed	Slow turnover	slow		below 50%		slow turnover		
FYPKLQ↓SSQAW [s11]												complexes of the M^pro dimer and the cleavage products were observed	next preferred substrate for catalysis	fast	> 90			medium turnover	> 70	
O=c1c2ccccc2[se]n1-c1ccccc1 [Ebselen]				did not support competitive inhibition																reacts multiple times with M^pro; also recorded: complex mode of inhibition
